Laboratory results from patent US20260265305A1, “POLYPEPTIDE DERIVATIVE FOR ORAL DELIVERY” (Hangzhou Sciwind Biosciences Co., Ltd., priority 2023, published 2026).
Numbered stars: 1 amine (or outer) side, 2 acyl side, 3 side chain; on linkers, the order of the positions; unused ones are H or OH. Bridge positions count the residues as written; N and C are the ends. Square brackets hold non-standard residues; d marks the D form. Ends that are not written are not given here. Peptide text beside a SMILES is read from it. * marks the point of attachment. C20 diacid = O=C(O)CCCCCCCCCCCCCCCCCCC(=O)*; C18 diacid = O=C(O)CCCCCCCCCCCCCCCCC(=O)*; βAsp = O=C(O)[C@H](CC(=O)[*:2])N[*:1]; Hyp = O=C(O)[C@@H]1C[C@@H](O)CN1; AEEA = NCCOCCOCC(=O)O

Key:
[1] = dog, in vivo, 7 mg
Protocol: Whole blood of the animals was collected pre dose (−10 min) and 2 h, 4 h, and 8 h post dose on Day 1, pre dose (−10 min) and 2 h and 4 h post dose on Day 2-Day 4, and pre dose (−10 min) and 2 h, 4 h, 8 h, 24 h, 48 h, and 72 h post dose on Day 5, and processed into plasma using heparin sodium as an anticoagulant. […] Experimental data was plotted using GraphPad Prism9.3.1.

[2] = molecular target: T1, amylin receptor (hAMY3R) (Homo sapiens, UniProt O60896+P30988); experiment: Amylin receptor agonism testing, CRE-luciferase assay in stably transfected CHO-K1/Ga15/AMY3 cells; assay type: cell-based; details: incubation of 4 hours (N2 and N3 retested); Table 3 lower part; read-out: EC50, activity against the amylin receptor in cells
T1 construct: host or cells: CHO-K1/Ga15/AMY3 cells, further stably transfected with a CRE-luciferase plasmid
T1 sequence (P30988 25-474): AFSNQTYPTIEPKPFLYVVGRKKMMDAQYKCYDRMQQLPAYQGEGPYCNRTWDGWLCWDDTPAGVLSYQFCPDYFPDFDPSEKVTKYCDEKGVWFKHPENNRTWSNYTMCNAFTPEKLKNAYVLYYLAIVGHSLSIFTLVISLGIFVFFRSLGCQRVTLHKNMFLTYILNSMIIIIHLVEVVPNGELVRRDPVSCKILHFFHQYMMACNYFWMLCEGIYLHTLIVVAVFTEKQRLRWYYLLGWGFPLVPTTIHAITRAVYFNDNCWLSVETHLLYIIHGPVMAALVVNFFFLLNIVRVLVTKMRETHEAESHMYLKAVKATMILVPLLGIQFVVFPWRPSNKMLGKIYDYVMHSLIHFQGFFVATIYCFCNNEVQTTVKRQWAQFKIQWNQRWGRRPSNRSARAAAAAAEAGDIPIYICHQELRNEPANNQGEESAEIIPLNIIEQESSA
T1 sequence (O60896 24-148): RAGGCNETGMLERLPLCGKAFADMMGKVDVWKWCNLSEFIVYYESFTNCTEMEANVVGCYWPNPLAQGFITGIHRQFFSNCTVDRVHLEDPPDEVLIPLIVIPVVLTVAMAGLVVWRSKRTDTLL
Description: The objective of this assay is to test the potency of the polypeptide derivatives in the present application on amylin and calcitonin receptors in vitro using a luciferase assay.
Using the standard protocol for construction of an amylin receptor/CRE-luc cell line, CHO-K1/Ga15/AMY3 cells (purchased from GenScript, with the calcitonin receptor and the receptor activity modifying peptide (RAMP) constructed already) were transfected with a plasmid containing a luciferase expression cassette driven by multiple copies of cAMP response elements (CREs). The cells were cultured in an F12 medium containing 200 ug/mL Zeocin, 2 ug/mL puromycin, 100 ug/mL hygromycin, and 400 ug/mL G418 to afford a stably transfected amylin receptor/CRE-luc cell line.
To each well of a white 96-well plate was added 50 μL of the tested sample solution at a respective concentration.
The stably transfected amylin receptor/CRE-luc CHO cells were resuspended in the growth medium at a certain density, and 50 μL of the cell suspension was added at a density of about 20,000 cells per well to the white 96-well plate containing the tested sample solution. After incubation of 24 hours at 37° C. and 5% CO2, 100 μL of a Luciferase substrate was added to each well, incubated for 3 minutes, and finally was tested for luminescence on SpectraMax L (Molecular Devices) with the software SoftMax Pro 7.0.3 GxP. A standard curve was plotted using the fluorescent intensities for calculation of EC50.

[3] = molecular target: T2, amylin receptor (hAMY3R) (human (printed as hAMY3R), UniProt P30988 25-474; O60896 24-148); experiment: cell-based or functional assay
T2 sequence (looked up) 1: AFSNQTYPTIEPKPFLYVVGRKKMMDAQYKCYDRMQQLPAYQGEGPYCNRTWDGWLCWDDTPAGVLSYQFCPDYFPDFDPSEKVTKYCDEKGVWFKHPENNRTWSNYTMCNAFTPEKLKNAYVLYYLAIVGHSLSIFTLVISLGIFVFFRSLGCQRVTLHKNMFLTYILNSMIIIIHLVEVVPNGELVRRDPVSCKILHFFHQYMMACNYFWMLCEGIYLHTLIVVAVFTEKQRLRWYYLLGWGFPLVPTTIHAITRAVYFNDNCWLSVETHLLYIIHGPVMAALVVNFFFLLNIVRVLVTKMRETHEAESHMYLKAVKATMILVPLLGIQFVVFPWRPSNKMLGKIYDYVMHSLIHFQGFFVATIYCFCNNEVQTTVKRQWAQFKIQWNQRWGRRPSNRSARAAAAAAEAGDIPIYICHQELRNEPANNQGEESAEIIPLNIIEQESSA
T2 sequence (looked up) 2: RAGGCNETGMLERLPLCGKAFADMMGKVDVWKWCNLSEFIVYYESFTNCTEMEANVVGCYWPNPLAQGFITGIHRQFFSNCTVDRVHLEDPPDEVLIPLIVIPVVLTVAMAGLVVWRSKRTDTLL

Molecule	oral bioavailability [1]	EC50 [2] [nM]	EC50, CRE-luciferase reporter in amylin receptor CHO cells, 24 h [3] [nM]
CC[C@H](C)[C@H](NC(=O)[C@@H]1CCCN1C(=O)[C@H](CCCCN)NC(=O)[C@H](CC(C)C)NC(=O)[C@H](CC(N)=O)NC(=O)[C@H](CC(N)=O)NC(=O)[C@H](CO)NC(=O)[C@H](CO)NC(=O)[C@H](Cc1c[nH]cn1)NC(=O)[C@H](CCCNC(=N)N)NC(=O)[C@H](CC(C)C)NC(=O)[C@H](Cc1ccccc1)NC(=O)[C@H](CC(=O)O)NC(=O)[C@H](C)NC(=O)[C@H](CC(C)C)NC(=O)[C@H](CCCNC(=N)N)NC(=O)[C@H](CCC(N)=O)NC(=O)[C@@H](NC(=O)[C@H](C)NC(=O)[C@@H]1CSSC[C@H](NC(=O)[C@H](CCCCN)NC(=O)COCCOCCNC(=O)COCCOCCNC(=O)C[C@H](NC(=O)CCCCCCCCCCCCCCCCCCC(=O)O)C(=O)O)C(=O)N[C@@H](CC(N)=O)C(=O)N[C@@H]([C@@H](C)O)C(=O)N[C@@H](C)C(=O)N[C@@H]([C@@H](C)O)C(=O)N1)[C@@H](C)O)C(=O)N[C@@H](CC(C)C)C(=O)N1CCC[C@H]1C(=O)N1CCC[C@H]1C(=O)N[C@H](C(=O)N[C@@H](CC(N)=O)C(=O)N[C@H](C(=O)NCC(=O)N[C@@H](CO)C(=O)N[C@@H](CC(N)=O)C(=O)N[C@H](C(=O)N1C[C@H](O)C[C@H]1C(N)=O)[C@@H](C)O)C(C)C)[C@@H](C)O [N2] ({C20 diacid-βAsp-AEEA-AEEA}-KCNTATCATQRLADFLRHSSNNLKPILPPTNVGSNT[Hyp]-NH2; disulfide 2-7 (inferred))	extraordinarily high oral bioavailability	–	–
CC[C@H](C)[C@H](NC(=O)[C@@H]1CCCN1C(=O)[C@H](CCCCN)NC(=O)[C@H](CC(C)C)NC(=O)[C@H](CC(N)=O)NC(=O)[C@H](CC(N)=O)NC(=O)[C@H](CO)NC(=O)[C@H](CO)NC(=O)[C@H](Cc1c[nH]cn1)NC(=O)[C@H](CCCNC(=N)N)NC(=O)[C@H](CC(C)C)NC(=O)[C@H](Cc1ccccc1)NC(=O)[C@H](CC(=O)O)NC(=O)[C@H](C)NC(=O)[C@H](CC(C)C)NC(=O)[C@H](CCCNC(=N)N)NC(=O)[C@H](CCC(N)=O)NC(=O)[C@@H](NC(=O)[C@H](C)NC(=O)[C@@H]1CSSC[C@H](NC(=O)[C@H](CCCCN)NC(=O)COCCOCCNC(=O)COCCOCCNC(=O)C[C@H](NC(=O)CCCCCCCCCCCCCCCCC(=O)O)C(=O)O)C(=O)N[C@@H](CC(N)=O)C(=O)N[C@@H]([C@@H](C)O)C(=O)N[C@@H](C)C(=O)N[C@@H]([C@@H](C)O)C(=O)N1)[C@@H](C)O)C(=O)N[C@@H](CC(C)C)C(=O)N1CCC[C@H]1C(=O)N1CCC[C@H]1C(=O)N[C@H](C(=O)N[C@@H](CC(N)=O)C(=O)N[C@H](C(=O)NCC(=O)N[C@@H](CO)C(=O)N[C@@H](CC(N)=O)C(=O)N[C@H](C(=O)N1C[C@H](O)C[C@H]1C(N)=O)[C@@H](C)O)C(C)C)[C@@H](C)O [N3] ({C18 diacid-βAsp-AEEA-AEEA}-KCNTATCATQRLADFLRHSSNNLKPILPPTNVGSNT[Hyp]-NH2; disulfide 2-7)	significantly improving the bioavailability	0.001	–
ASQLSTAVLGRLSQELHRLQDYPRTDVGSGSP-NH2 [M5]	–	–	0.033
